Columns and labels:
[1] = biological target: T1, Epidermal growth factor receptor (Homo sapiens, UniProt P00533); assay: Inhibition of autophosphorylation of human epidermal growth factor-receptor (EGF-R) expressed in A431 cells; format: functional, cell-based, A-431
[2] = biological target: Receptor tyrosine-protein kinase erbB-2 (Homo sapiens, UniProt P04626); assay: Inhibition of autophosphorylation of human Her (p185erbB) tyrosine kinase expressed in SKOV-3 cells; format: functional, cell-based, SK-OV-3
[3] = biological target: Platelet-derived growth factor receptor beta (Homo sapiens, UniProt P09619); assay: Inhibitory activity towards tyrosine phosphorylation of PDGF-receptor beta kinase
[4] = biological target: T1, Epidermal growth factor receptor; assay: Inhibitory activity towards tyrosine phosphorylation for the epidermal growth factor-receptor kinase
[5] = biological target: Vascular endothelial growth factor receptor 2 (Homo sapiens, UniProt P35968); assay: Inhibition of tyrosine phosphorylation in cells expressing human VEGFR2 (Flk-1/KDR) kinase
Vascular endothelial growth factor receptor 2, sequence (P35968 whole entry): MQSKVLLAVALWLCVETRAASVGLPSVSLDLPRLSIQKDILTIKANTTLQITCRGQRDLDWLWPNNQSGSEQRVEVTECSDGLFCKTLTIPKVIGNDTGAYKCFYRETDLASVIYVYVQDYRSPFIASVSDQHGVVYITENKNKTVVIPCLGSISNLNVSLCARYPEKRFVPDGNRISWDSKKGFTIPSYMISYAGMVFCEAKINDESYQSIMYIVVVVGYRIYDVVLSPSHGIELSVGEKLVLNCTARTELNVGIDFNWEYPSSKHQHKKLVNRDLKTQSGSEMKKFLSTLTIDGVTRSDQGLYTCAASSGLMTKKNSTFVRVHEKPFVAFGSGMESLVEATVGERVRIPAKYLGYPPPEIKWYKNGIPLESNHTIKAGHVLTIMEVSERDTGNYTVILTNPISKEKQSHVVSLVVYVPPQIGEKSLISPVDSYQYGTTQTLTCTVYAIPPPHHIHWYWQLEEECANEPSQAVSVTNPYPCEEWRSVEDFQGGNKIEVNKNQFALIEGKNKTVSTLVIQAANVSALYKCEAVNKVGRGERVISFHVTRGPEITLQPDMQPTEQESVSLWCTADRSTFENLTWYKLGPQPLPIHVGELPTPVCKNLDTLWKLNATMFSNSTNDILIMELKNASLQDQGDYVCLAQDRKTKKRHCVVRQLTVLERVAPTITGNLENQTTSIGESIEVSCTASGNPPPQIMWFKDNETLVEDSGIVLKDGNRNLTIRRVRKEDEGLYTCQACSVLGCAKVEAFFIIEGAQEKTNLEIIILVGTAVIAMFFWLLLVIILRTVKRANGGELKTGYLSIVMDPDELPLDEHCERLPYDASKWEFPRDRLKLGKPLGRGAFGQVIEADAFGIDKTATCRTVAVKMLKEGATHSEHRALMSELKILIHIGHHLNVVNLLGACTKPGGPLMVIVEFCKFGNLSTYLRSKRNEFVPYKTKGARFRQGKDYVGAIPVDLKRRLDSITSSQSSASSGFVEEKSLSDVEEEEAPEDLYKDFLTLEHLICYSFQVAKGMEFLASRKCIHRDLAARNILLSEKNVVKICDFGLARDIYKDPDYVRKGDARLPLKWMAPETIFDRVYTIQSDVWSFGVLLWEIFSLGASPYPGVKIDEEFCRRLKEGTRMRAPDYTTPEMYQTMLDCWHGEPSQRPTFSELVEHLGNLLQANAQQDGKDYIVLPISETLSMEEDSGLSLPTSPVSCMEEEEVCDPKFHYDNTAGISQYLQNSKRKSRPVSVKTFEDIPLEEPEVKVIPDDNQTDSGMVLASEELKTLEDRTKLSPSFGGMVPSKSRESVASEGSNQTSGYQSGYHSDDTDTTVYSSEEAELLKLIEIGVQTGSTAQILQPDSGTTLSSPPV

T1 sequence (P00533 whole entry): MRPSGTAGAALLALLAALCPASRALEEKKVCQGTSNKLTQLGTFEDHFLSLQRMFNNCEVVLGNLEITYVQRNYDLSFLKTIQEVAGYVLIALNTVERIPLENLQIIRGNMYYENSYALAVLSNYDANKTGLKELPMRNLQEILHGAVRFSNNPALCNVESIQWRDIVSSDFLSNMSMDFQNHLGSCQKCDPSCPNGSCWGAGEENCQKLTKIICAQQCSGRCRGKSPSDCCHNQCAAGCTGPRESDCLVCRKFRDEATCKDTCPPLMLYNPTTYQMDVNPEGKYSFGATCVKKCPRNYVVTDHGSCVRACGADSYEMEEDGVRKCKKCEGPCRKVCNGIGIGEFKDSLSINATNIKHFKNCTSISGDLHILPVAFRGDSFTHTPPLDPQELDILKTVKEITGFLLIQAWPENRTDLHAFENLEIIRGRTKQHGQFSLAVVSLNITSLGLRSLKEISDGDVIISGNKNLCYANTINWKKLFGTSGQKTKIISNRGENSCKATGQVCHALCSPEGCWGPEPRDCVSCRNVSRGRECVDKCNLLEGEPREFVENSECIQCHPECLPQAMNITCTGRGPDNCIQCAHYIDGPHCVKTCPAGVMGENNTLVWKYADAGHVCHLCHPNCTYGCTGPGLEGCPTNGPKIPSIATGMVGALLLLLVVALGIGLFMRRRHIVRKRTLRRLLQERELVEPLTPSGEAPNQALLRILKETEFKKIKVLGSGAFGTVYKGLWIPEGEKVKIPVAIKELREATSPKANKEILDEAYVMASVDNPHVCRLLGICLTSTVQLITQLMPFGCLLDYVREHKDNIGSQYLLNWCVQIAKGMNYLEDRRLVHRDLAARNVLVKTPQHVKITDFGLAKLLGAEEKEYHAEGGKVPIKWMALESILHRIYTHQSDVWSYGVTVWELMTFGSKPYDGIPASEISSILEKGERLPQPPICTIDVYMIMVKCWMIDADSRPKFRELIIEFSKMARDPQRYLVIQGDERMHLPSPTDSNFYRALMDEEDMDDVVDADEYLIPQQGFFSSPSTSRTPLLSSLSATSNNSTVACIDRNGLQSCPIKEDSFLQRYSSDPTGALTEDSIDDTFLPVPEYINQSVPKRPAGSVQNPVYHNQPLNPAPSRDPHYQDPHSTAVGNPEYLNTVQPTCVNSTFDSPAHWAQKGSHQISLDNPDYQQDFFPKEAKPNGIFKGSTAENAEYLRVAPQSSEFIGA
Receptor tyrosine-protein kinase erbB-2, sequence (P04626 whole entry): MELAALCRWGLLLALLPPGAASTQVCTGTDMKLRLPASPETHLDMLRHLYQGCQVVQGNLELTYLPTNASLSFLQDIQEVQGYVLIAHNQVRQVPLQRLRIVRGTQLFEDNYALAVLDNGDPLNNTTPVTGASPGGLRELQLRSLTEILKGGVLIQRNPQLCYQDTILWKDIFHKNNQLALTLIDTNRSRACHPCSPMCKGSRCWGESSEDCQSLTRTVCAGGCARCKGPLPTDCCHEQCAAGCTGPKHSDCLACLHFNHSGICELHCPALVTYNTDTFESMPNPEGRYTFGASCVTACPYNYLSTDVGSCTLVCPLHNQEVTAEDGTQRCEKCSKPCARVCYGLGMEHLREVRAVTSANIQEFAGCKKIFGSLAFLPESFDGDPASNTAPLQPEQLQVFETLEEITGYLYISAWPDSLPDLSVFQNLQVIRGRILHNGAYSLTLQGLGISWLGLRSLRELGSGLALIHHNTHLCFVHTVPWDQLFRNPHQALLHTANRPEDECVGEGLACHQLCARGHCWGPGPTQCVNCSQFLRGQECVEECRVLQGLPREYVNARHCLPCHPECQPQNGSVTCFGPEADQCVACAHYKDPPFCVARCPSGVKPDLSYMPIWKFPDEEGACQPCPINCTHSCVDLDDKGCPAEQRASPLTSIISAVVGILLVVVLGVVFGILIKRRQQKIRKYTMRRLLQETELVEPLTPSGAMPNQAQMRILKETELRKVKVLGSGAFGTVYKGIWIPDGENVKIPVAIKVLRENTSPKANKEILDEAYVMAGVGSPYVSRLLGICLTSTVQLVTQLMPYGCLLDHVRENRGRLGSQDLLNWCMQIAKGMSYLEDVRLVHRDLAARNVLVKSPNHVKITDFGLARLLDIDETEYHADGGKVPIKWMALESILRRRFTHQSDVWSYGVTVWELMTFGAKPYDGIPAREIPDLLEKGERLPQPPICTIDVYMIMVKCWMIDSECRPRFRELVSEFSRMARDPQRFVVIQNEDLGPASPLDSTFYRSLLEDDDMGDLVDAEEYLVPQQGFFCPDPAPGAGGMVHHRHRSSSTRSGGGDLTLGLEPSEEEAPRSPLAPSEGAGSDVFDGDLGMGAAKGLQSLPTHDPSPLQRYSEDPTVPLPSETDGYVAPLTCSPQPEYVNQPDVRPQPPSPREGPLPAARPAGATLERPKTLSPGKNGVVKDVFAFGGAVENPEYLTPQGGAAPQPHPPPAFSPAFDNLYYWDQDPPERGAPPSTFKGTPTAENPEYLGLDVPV
Platelet-derived growth factor receptor beta, sequence (P09619 whole entry): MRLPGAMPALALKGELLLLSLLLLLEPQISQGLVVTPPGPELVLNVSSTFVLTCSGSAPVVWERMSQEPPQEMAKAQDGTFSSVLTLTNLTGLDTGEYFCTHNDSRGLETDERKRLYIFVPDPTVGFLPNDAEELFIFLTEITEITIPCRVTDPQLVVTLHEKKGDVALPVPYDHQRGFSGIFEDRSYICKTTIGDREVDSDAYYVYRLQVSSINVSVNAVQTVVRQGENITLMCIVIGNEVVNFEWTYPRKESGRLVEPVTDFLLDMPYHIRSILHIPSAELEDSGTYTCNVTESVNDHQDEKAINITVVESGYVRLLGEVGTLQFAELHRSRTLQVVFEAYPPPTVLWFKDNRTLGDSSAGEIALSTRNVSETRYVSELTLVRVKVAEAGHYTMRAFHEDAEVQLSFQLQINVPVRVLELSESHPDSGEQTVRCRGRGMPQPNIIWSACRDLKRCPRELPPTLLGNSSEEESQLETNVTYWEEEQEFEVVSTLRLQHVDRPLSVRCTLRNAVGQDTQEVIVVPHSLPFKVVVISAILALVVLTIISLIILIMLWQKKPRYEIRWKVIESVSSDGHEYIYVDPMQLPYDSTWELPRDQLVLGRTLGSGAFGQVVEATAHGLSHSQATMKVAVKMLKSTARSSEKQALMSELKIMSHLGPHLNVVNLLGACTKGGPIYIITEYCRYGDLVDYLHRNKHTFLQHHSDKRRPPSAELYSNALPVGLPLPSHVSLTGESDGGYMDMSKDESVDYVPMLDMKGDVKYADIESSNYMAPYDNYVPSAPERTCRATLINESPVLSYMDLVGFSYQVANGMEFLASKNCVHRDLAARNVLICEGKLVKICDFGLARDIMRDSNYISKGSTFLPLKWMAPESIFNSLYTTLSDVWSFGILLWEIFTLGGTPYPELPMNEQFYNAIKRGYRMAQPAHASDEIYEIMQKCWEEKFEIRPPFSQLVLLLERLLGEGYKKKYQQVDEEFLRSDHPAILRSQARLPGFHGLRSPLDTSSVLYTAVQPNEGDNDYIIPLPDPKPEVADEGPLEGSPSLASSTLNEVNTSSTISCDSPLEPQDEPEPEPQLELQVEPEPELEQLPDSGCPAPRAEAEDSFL

Structure (SMILES)	IC50 [1] [nM]	IC50 [2] [nM]	IC50 [3] [nM]	IC50 [4] [nM]	IC50 [5] [nM]
Cc1cc(C(=O)NCCN2CCOCC2)[nH]c1/C=C1\C(=O)Nc2ncnc(Nc3ccc4c(ccn4Cc4ccccc4)c3)c21	200	40	> 100000	1.1	3470
O=C1Nc2ncnc(Nc3ccc(F)c(Cl)c3)c2/C1=C/c1ccc(C(=O)NCCN2CCOCC2)[nH]1	–	–	> 100000	22	> 20000
CCN(CC)CC(O)CNC(=O)c1cc(C)c(/C=C2\C(=O)Nc3ncnc(Nc4ccc(F)c(Cl)c4)c32)[nH]1 (stereo not drawn)	–	–	–	0.45	360
Cc1c(C(=O)N2CCN(C)CC2)c[nH]c1/C=C1\C(=O)Nc2ncnc(Nc3ccc(F)c(Cl)c3)c21	–	–	> 20000	410	> 20000
Cc1cc(C(=O)O)[nH]c1/C=C1\C(=O)Nc2ncnc(Nc3ccc(F)c(Cl)c3)c21	> 5000	> 5000	> 20000	29	8920
Cc1cc(C(=O)N2CCN(C)CC2)[nH]c1/C=C1\C(=O)Nc2ncnc(Nc3ccc(F)c(Cl)c3)c21	100	200	> 20000	2.8	> 20000
Cc1[nH]c(/C=C2\C(=O)Nc3ncnc(Nc4ccc(F)c(Cl)c4)c32)c(C)c1CCC(=O)O	–	–	> 20000	180	> 20000
Cc1cc(CCC(=O)O)[nH]c1/C=C1\C(=O)Nc2ncnc(Nc3ccc(F)c(Cl)c3)c21	–	–	> 20000	4.7	> 20000
CCN(CC)CCNC(=O)c1cc(C)c(/C=C2\C(=O)Nc3ncnc(Nc4ccc(Cl)cc4F)c32)[nH]1	500	–	5620	450	40
CCN(CC)CCNC(=O)c1c(C)[nH]c(/C=C2\C(=O)Nc3ncnc(Nc4ccc(F)c(Cl)c4)c32)c1C	–	–	> 20000	200	3470
Cc1cc(C(=O)NCCN2CCOCC2)[nH]c1/C=C1\C(=O)N(C)c2ncnc(Nc3ccc(F)c(Cl)c3)c21	–	–	> 20000	5310	10100
Cc1cc(C(=O)N2CCOCC2)[nH]c1/C=C1\C(=O)Nc2ncnc(Nc3ccc4c(c3)CCC4)c21	5000	> 5000	> 20000	1410	3460
CCN1CCN(C(=O)c2cc(C)c(/C=C3\C(=O)Nc4ncnc(Nc5ccc(F)c(Cl)c5)c43)[nH]2)CC1	200	100	> 20000	13	> 20000
Cc1cc(C(=O)N2CCOCC2)[nH]c1/C=C1\C(=O)Nc2ncnc(Nc3ccc4c(cnn4Cc4ccccc4)c3)c21	100	100	> 10000	1.8	2100
Cc1cc(C(=O)N2CCOCC2)[nH]c1/C=C1\C(=O)Nc2ncnc(Nc3ccc4c(ccn4Cc4ccccc4)c3)c21	100	100	> 20000	4.5	2050
Cc1cc(C(=O)N2CCOCC2)[nH]c1/C=C1\C(=O)Nc2ncnc(N3CCCCC3)c21	–	–	> 20000	> 20000	> 20000
Cc1cc(C)c(/C=C2\C(=O)Nc3ncnc(Nc4ccc(F)c(Cl)c4)c32)[nH]1	300	300	> 100000	41	16500
Cc1cc(C(=O)N2CC(C)NC(C)C2)[nH]c1/C=C1\C(=O)Nc2ncnc(Nc3ccc(F)c(Cl)c3)c21 (stereo not drawn)	–	500	> 20000	–	1630
CCN(CC)CCNC(=O)c1cc(C)c(/C=C2\C(=O)Nc3ncnc(Nc4ccc(F)c(Cl)c4)c32)[nH]1	200	200	–	1.2	300
Cc1cc(C(=O)NCCN2CCOCC2)[nH]c1/C=C1\C(=O)Nc2ncnc(Nc3ccc(F)c(Cl)c3)c21	–	100	> 100000	–	> 20000
Cc1cc(C)c(/C=C2\C(=O)N(C)c3ncnc(Nc4ccc(F)c(Cl)c4)c32)[nH]1	–	–	> 20000	> 20000	5820
Cc1cc(C(=O)N2CCOCC2)[nH]c1/C=C1\C(=O)Nc2ncnc(Nc3ccc(F)c(Cl)c3)c21	40	400	> 20000	170	> 20000
Cc1cc(/C=C2\C(=O)Nc3ncnc(Nc4ccc(F)c(Cl)c4)c32)[nH]c1C(=O)N1CCN(C)CC1	–	–	> 20000	210	> 20000
C#Cc1cccc(Nc2ncnc3c2/C(=C/c2[nH]c(C(=O)NCCN4CCOCC4)cc2C)C(=O)N3)c1	40	40	> 20000	18	> 20000

Source: ChEMBL document CHEMBL1134862, “Rational design of 4,5-disubstituted-5,7-dihydro-pyrrolo[2,3-d]pyrimidin-6-ones as a novel class of inhibitors of epidermal growth factor receptor (EGF-R) and Her2(p185(erbB)) tyrosine kinases” (Bioorg Med Chem Lett, 2002)
